Assay results published in article PMC5908160, “Inhibition of sperm motility in male macaques with EP055, a potential non-hormonal male contraceptive” (PLoS ONE, 2018).

Assay: Blood constituents and health monitoring in rhesus males after EP055 infusion
Format: in vivo, Macaca mulatta
Design: Hematocrit: unit not given here
From the text: The physical and behavioral condition of animals are monitored daily at ONPRC. Additional monitoring by Division of Comparative Medicine and/or clinical veterinary staff was provided immediately, at 1 hr, 2 hr and 6 hr post-administration of the contraceptive compound, and daily for up to 30 days after the final drug injection. Criteria used to assess animal health and welfare include: stool and urine quality and quantity, appetite and attitude (bright and alert, quiet, lethargic), pain (not eating, not moving, hunched over, lethargy/disinterest), vomiting, diarrhea, nausea, dehydration (unkempt coat, lack of urine production), and signs of wounds of injury. In addition, the ONPRC Standardized Pain Scoring system is used post-surgically to monitor an animal’s progress and improvement over time. Major criteria include animal appearance, posture, activity (including stool and urine production), vocalization and atypical behaviors.
Prior to infusion of EP055, each male was sedated with ketamine by the surgical staff at ONPRC and transported to the operating room. After positioning in dorsal recumbency, the male was intubated and placed under inhalant (isoflurane) anesthesia. Bilateral intravenous catheters were placed in cephalic veins, one for infusion and one for back-up. A percutaneous arterial line was placed in the right femoral artery for direct blood pressure measurement. Invasive blood pressure, heart rate, SpO2, and respirations were monitored by the surgical staff throughout the procedure. Initially, the low doses of EP055 in 5% DMSO-PBS 7.6 was infused by i.v. at 75-80 mg/kg, using a Medfusion 3500 pump (Smiths Medical, St. Paul, MN), and was started at a low flow rate ([…]). In 3 of 4 males, a 5-10% increase in blood pressure and heart rate were noted within the first 2-3 minutes of infusion of EP055. In these cases, the infusion was temporarily suspended until these parameters subsequently declined to normal. The infusion rate was then doubled to 1.2 ml/kg/min after 5-10 minutes and the final volume of EP055 infusate was administered. Blood pressure and heart rate remained normal throughout the rest of the infusion interval. The total volume of EP055 infusate ranged from 72 ml – 136 ml, depending upon the weight of the animal, and the duration of infusion was 10-13 minutes. Following completion of the infusion, all animals recovered normally. Animals were monitored by clinical veterinary staff immediately, at 1 hr, 2 hr and 6-8 hr post-infusion, and daily for up to 30 days after the final infusion of EP055. […] Two weeks after the infusion of the low dose and collection of the next set of baseline semen samples, males were infused with the high dose of EP055 (125-130 mg/kg) as described above, and monitored similarly.
Blood was collected from the brachial vein at the time of each semen collection, and used to determine complete blood counts and serum biochemistry tests (including electrolytes, glucose, lipids, proteins, enzymes and metabolic by-products) as performed in the Clinical Pathology Laboratory in the Division of Comparative Medicine at ONPRC.

[1] = post high dose 125–130 mg/kg, 6-8 hrs
[2] = post high dose 125–130 mg/kg, 28-30 hrs
[3] = post high dose 125–130 mg/kg, 78 hr
[4] = post low dose 75–80 mg/kg, 6-8 hrs

In the case of `COC(=O)NNc1nc(Nc2ccc(NC(C)=O)c(O)c2)nc(SCC(=O)O)n1` [EP055], the “increase in blood pressure and heart rate” value (3 of 4 males, first 2-3 minutes of low dose infusion (75-80 mg/kg)) is reported as 5-10%, the “blood constituents versus baseline levels” value (after low or high dose) is reported as “no clinically significant difference” and the “side effects, monitoring of blood and organ function” value (during and after drug administration) is reported as “no indications of any side effects or health warning signs”. The “ALT (alanine aminotransferase) and glucose levels” value (during treatment) was “rose during treatment”, the adverse effects (high dose 125-130 mg/kg) was “no adverse effects were observed” and the “neutrophil numbers versus reference range (2.4–9.6 x 10^3/mm^3)” value (high dose, 6 hrs) was “slightly above the high end of the reference range”. The “long-term effects on animals” value (in vivo) was “no long- term effects”, the adverse effects (low dose 75-80 mg/kg, monitored up to 30 days) was “No adverse effects were observed” and the ALT [1] was 49.7 ± 3.6 U/l. The AST [1] was 68.3 ± 6.8 U/l, the Albumin [1] was 4.7 ± 0.1 g/dL and the “Alkaline Phosphatase” value [1] was 94.0 ± 4.8 U/l. It also gave a BUN [1] of 18.8 ± 2.3 mg/dL, a Basophils [1] of 0.5 ± 0.1% and a CREAT [1] of 1.0 ± 0.1 mg/dL. It also gave a Chloride [1] of 108.7 ± 0.3 mEq/l, a Cholesterol [1] of 146.3 ± 18.1 mg/dL and an Eosinophils [1] of 0.9 ± 0.1%. The Erythrocytes [1] was 6.1 ± 0.2 x 10^6/mm^3, the GGT [1] was 71.0 ± 1.0 U/l and the GLUC [1] was 101.3 ± 10.2 mg/dL. The Hematocrit [1] was 45.2 ± 1.0, the Hemoglobin [1] was 14.7 ± 0.4 g/dL and the Leukocytes [1] was 12.3 ± 1.8 x 10^3/mm^3. The Lymphocytes [1] was 21.6 ± 9.9%, the MCH [1] was 24.2 ± 0.4 pg/cell and the MCHC [1] was 32.5 ± 0.1 g/dL. The MCV [1] was 74.5 ± 1.1 fl/cell, the Magnesium [1] was 2.2 ± 0.1 mg/dL and the Monocytes [1] was 5.2 ± 0.4%. For the same compound, the Neutrophils [1] was 10.3 ± 1.4 x 10^3/mm^3, the Phosphorus [1] was 5.2 ± 0.4 mg/dL and the Platelets [1] was 298.3 ± 39.0 x 10^6. For the same compound, the Potassium [1] was 4.0 ± 0.1 mEq/l, the Sodium [1] was 147.7 ± 0.6 mEq/l and the “Total Bilirubin” value [1] was 0.2 ± 0.1 mg/dL. The “Total Protein” value [1] was 7.6 ± 0.2 g/dL, the Triglycerides [1] was 84.3 ± 19.8 mg/dL and the ALT [2] was 74.0 ± 10.8 U/l. The AST [2] was 83.3 ± 14.3 U/l, the Albumin [2] was 4.7 ± 0.1 g/dL and the “Alkaline Phosphatase” value [2] was 95.7 ± 3.6 U/l. It also gave a BUN [2] of 15.3 ± 2.4 mg/dL, a Basophils [2] of 0.5 ± 0.1% and a CREAT [2] of 1.0 ± 0.0 mg/dL. For the same compound, the Chloride [2] was 108.7 ± 0.6 mEq/l, the Cholesterol [2] was 147.3 ± 23.4 mg/dL and the Eosinophils [2] was 1.4 ± 0.1%. The Erythrocytes [2] was 6.1 ± 0.2 x 10^6/mm^3, the GGT [2] was 71.3 ± 3.4 U/l and the GLUC [2] was 92.0 ± 9.7 mg/dL. For the same compound, the Hematocrit [2] was 45.9 ± 0.9, the Hemoglobin [2] was 15.0 ± 0.4 g/dL and the Leukocytes [2] was 7.7 ± 1.4 x 10^3/mm^3. It also gave a Lymphocytes [2] of 32.4 ± 4.3%, an MCH [2] of 24.4 ± 0.3 pg/cell and an MCHC [2] of 32.7 ± 0.2 g/dL. It also gave an MCV [2] of 74.8 ± 1.0 fl/cell, a Magnesium [2] of 1.9 ± 0.0 mg/dL and a Monocytes [2] of 5.5 ± 0.6%. The Neutrophils [2] was 5.1 ±0.8 x 10^3/mm^3, the Phosphorus [2] was 3.2 ± 0.6 mg/dL and the Platelets [2] was 301.7 ± 36.5 x 10^6. The Potassium [2] was 4.0 ± 0.1 mEq/l, the Sodium [2] was 149.0 ± 0.0 mEq/l and the “Total Bilirubin” value [2] was 0.2 ± 0.1 mg/dL. The “Total Protein” value [2] was 7.8 ± 0.2 g/dL, the Triglycerides [2] was 59.3 ± 18.5 mg/dL and the ALT [3] was 53.0 ± 7.3 U/l. The AST [3] was 30.0 ± 3.1 U/l, the Albumin [3] was 4.8 ± 0.1 g/dL and the “Alkaline Phosphatase” value [3] was 101.5 ± 8.7 U/l. It also gave a BUN [3] of 18.3 ± 2.2 mg/dL, a Basophils [3] of 0.5 ± 2.3% and a CREAT [3] of 1.0 ± 0.0 mg/dL. The Chloride [3] was 108.5 ± 0.9 mEq/l, the Cholesterol [3] was 152.0 ± 19.4 mg/dL and the Eosinophils [3] was 1.4 ± 4.5%. The Erythrocytes [3] was 5.8 ± 4.5 x 10^6/mm^3, the GGT [3] was 69.3 ± 3.8 U/l and the GLUC [3] was 85.0 ± 8.7 mg/dL. For the same compound, the Hematocrit [3] was 43.3 ± 4.5, the Hemoglobin [3] was 14.1 ± 2.3 g/dL and the Leukocytes [3] was 9.7 ± 2.3 x 10^3/mm^3. The Lymphocytes [3] was 34.6 ± 4.5%, the MCH [3] was 24.3 ± 4.5 pg/cell and the MCV [3] was 74.9 ± 2.3 fl/cell. For the same compound, the Magnesium [3] was 1.9 ± 0.1 mg/dL, the Monocytes [3] was 5.6 ± 2.3% and the Neutrophils [3] was 5.4 ± 1.1 x 10^3/mm^3. The Phosphorus [3] was 4.2 ± 0.8 mg/dL, the Platelets [3] was 292.8 ± 48.1 x 10^6 and the Potassium [3] was 4.4 ± 0.2 mEq/l. For the same compound, the Sodium [3] was 149.5 ± 1.2 mEq/l, the “Total Bilirubin” value [3] was 0.1 ± 0.0 mg/dL and the “Total Protein” value [3] was 7.8 ± 0.1 g/dL. The Triglycerides [3] was 68.0 ± 10.6 mg/dL, the ALT [4] was 44.8 ± 2.0- U/l and the AST [4] was 49.8 ± 3.1 U/l. The Albumin [4] was 4.7 ± 0.0 g/dL, the “Alkaline Phosphatase” value [4] was 129.8 ± 19.2 U/l and the BUN [4] was 17.2 ± 1.9 mg/dL. It also gave a Basophils [4] of 0.6 ± 0.1%, a CREAT [4] of 1.0 ± 0.0 mg/dL and a Chloride [4] of 109.3 ± 1.5 mEq/l. For the same compound, the Cholesterol [4] was 154.5 ± 19.0 mg/dL, the Eosinophils [4] was 1.2 ± 0.3% and the Erythrocytes [4] was 5.9 ± 0.2 x 10^6/mm^3.
